Test results taken from ChEMBL document CHEMBL2413072, “Synthesis and in vitro anticancer studies of novel C-2 arylidene congeners of lantadenes” (2013).

Tests used:
Type in all cases: functional
NCI-H23 [1] = assay: Growth inhibition of human NCI-H23 cells assessed as cell growth at 10^-4 M by sulforhodamine B assay; conditions: read-out: Activity
M14 = assay: Growth inhibition of human M14 cells by sulforhodamine B assay
SR [2] = assay: Growth inhibition of human SR cells assessed as cell growth at 10^-4 M by sulforhodamine B assay; conditions: read-out: Activity
HL-60(TB) = assay: Growth inhibition of human HL-60(TB) cells by sulforhodamine B assay
PC-3 [3] = assay: Growth inhibition of human PC3 cells assessed as cell growth at 10^-6 M by sulforhodamine B assay; conditions: read-out: Activity
CCRF-CEM = assay: Growth inhibition of human CCRF-CEM cells assessed as cell growth at 10^-8 M by sulforhodamine B assay; conditions: read-out: Activity
HCT-15 = assay: Growth inhibition of human HCT15 cells assessed as cell growth at 10^-8 M by sulforhodamine B assay; conditions: read-out: Activity
UACC-62 = assay: Growth inhibition of human UACC62 cells assessed as cell growth at 10^-8 M by sulforhodamine B assay; conditions: read-out: Activity
786-0 [4] = assay: Growth inhibition of human 786-0 cells assessed as cell growth at 10^-6 M by sulforhodamine B assay; conditions: read-out: Activity
DU-145 = assay: Growth inhibition of human DU145 cells assessed as cell growth at 10^-6 M by sulforhodamine B assay; conditions: read-out: Activity
SF-295 = assay: Growth inhibition of human SF295 cells assessed as cell growth at 10^-4 M by sulforhodamine B assay; conditions: read-out: Activity
NCI-H460 = assay: Growth inhibition of human NCI-H460 cells assessed as cell growth at 10^-4 M by sulforhodamine B assay; conditions: read-out: Activity
U-251 [5] = assay: Growth inhibition of human U251 cells assessed as cell growth at 10^-7 M by sulforhodamine B assay; conditions: read-out: Activity
[6] = Growth inhibition of human HCC2998 cells assessed as cell growth at 10^-4 M by sulforhodamine B assay; conditions: HCC 2998, read-out: Activity
[7] = Growth inhibition of human HCC2998 cells assessed as cell growth at 10^-7 M by sulforhodamine B assay; conditions: HCC 2998, read-out: Activity
NCI-H23 [8] = assay: Growth inhibition of human NCI-H23 cells by sulforhodamine B assay
OVCAR-8 [9] = assay: Growth inhibition of human OVCAR8 cells assessed as cell growth at 10^-6 M by sulforhodamine B assay; conditions: read-out: Activity
PC-3 [10] = assay: Growth inhibition of human PC3 cells assessed as cell growth at 10^-8 M by sulforhodamine B assay; conditions: read-out: Activity
[11] = Growth inhibition of human Hs 578T cells assessed as cell growth at 10^-4 M by sulforhodamine B assay; conditions: read-out: Activity
TK-10 [12] = assay: Growth inhibition of human TK10 cells assessed as cell growth at 10^-7 M by sulforhodamine B assay; conditions: read-out: Activity
OVCAR-5 = assay: Growth inhibition of human OVCAR5 cells assessed as cell growth at 10^-4 M by sulforhodamine B assay; conditions: read-out: Activity
A549 = assay: Growth inhibition of human A549/ATCC cells by sulforhodamine B assay
CAKI-1 = assay: Growth inhibition of human CAKI-1 cells assessed as cell growth at 10^-4 M by sulforhodamine B assay; conditions: read-out: Activity
T47D = assay: Growth inhibition of human T47D cells assessed as cell growth at 10^-4 M by sulforhodamine B assay; conditions: read-out: Activity
OVCAR-3 = assay: Growth inhibition of human OVCAR3 cells assessed as cell growth at 10^-8 M by sulforhodamine B assay; conditions: read-out: Activity
SK-MEL-2 = assay: Growth inhibition of human SK-MEL-2 cells assessed as cell growth at 10^-8 M by sulforhodamine B assay; conditions: read-out: Activity
U-251 [13] = assay: Growth inhibition of human U251 cells assessed as cell growth at 10^-6 M by sulforhodamine B assay; conditions: read-out: Activity
MCF7 [14] = assay: Growth inhibition of human MCF7 cells assessed as cell growth at 10^-4 M by sulforhodamine B assay; conditions: read-out: Activity
OVCAR-8 [15] = assay: Growth inhibition of human OVCAR8 cells assessed as cell growth at 10^-7 M by sulforhodamine B assay; conditions: read-out: Activity
SNB-19 [16] = assay: Growth inhibition of human SNB19 cells assessed as cell growth at 10^-6 M by sulforhodamine B assay; conditions: read-out: Activity
SNB-19 [17] = assay: Growth inhibition of human SNB19 cells by sulforhodamine B assay
TK-10 [18] = assay: Growth inhibition of human TK10 cells by sulforhodamine B assay
SNB-75 = assay: Growth inhibition of human SNB75 cells assessed as cell growth at 10^-8 M by sulforhodamine B assay; conditions: read-out: Activity
UACC-257 = assay: Growth inhibition of human UACC257 cells assessed as cell growth at 10^-7 M by sulforhodamine B assay; conditions: read-out: Activity
786-0 [19] = assay: Growth inhibition of human 786-0 cells assessed as cell growth at 10^-7 M by sulforhodamine B assay; conditions: read-out: Activity
SK-OV-3 = assay: Growth inhibition of human SKOV3 cells assessed as cell growth at 10^-8 M by sulforhodamine B assay; conditions: read-out: Activity
MCF7 [20] = assay: Growth inhibition of human MCF7 cells by sulforhodamine B assay
RXF 393 = assay: Growth inhibition of human RXF393 cells assessed as cell growth at 10^-6 M by sulforhodamine B assay; conditions: read-out: Activity
SN12C = assay: Growth inhibition of human SN12C cells by sulforhodamine B assay
SF-268 = assay: Growth inhibition of human SF268 cells assessed as cell growth at 10^-4 M by sulforhodamine B assay; conditions: read-out: Activity
SR [21] = assay: Growth inhibition of human SR cells assessed as cell growth at 10^-6 M by sulforhodamine B assay; conditions: read-out: Activity
[22] = read-out: LC50 (the source's name)
[23] = read-out: pLC50 (the source's name) (converted)

`CC(C)=CC(=O)O[C@@H]1CC(C)(C)C[C@H]2C3=CC[C@@H]4[C@@]5(C)CC[C@H](O)C(C)(C)[C@@H]5CC[C@@]4(C)[C@]3(C)CC[C@@]12C(=O)O` [Reduced Lantadene B] showed a growth at 100 µM (NCI-H23 [1]) of -58%, a GI50 (M14; read-out: GI50) of 7.71 µM and a CC50 (M14; [22]) of 67.8 µM. It also gave a TGI (M14; read-out: TGI) of 24.8 µM, a GI50 (M14; read-out: pGI50 (converted)) of 7.76 µM and a CC50 (M14; [23]) of 67.6 µM. It also gave a TGI (M14; read-out: pTGI (converted)) of 24.5 µM, a growth at 100 µM (SR [2]) of -26% and a GI50 (HL-60(TB); read-out: GI50) of 2.52 µM. For the same compound, the CC50 (HL-60(TB); [22]) was 86.3 µM, the TGI (HL-60(TB); read-out: TGI) was 6.86 µM and the GI50 (HL-60(TB); read-out: pGI50 (converted)) was 2.51 µM. For the same compound, the CC50 (HL-60(TB); [23]) was 87.1 µM, the TGI (HL-60(TB); read-out: pTGI (converted)) was 6.92 µM and the growth at 1 µM (PC-3 [3]) was 67%. It also gave a growth at 0.01 µM (CCRF-CEM) of 103%, a growth at 0.01 µM (HCT-15) of 93% and a growth at 0.01 µM (UACC-62) of 94%. The growth at 1 µM (786-0 [4]) was 93%, the growth at 1 µM (DU-145) was 94% and the growth at 100 µM (SF-295) was -71%. The growth at 100 µM (NCI-H460) was -4%, the growth at 0.1 µM (U-251 [5]) was 96% and the growth at 100 µM [6] was -66%. The growth at 0.1 µM [7] was 99%, the GI50 (NCI-H23 [8]; read-out: GI50) was 7.24 µM and the CC50 (NCI-H23 [8]; [22]) was 84 µM. For the same compound, the TGI (NCI-H23 [8]; read-out: TGI) was 26.9 µM, the GI50 (NCI-H23 [8]; read-out: pGI50 (converted)) was 7.24 µM and the CC50 (NCI-H23 [8]; [23]) was 83.2 µM. It also gave a TGI (NCI-H23 [8]; read-out: pTGI (converted)) of 26.9 µM, a growth at 1 µM (OVCAR-8 [9]) of 82% and a growth at 0.01 µM (PC-3 [10]) of 97%. For the same compound, the growth at 100 µM [11] was -45%, the growth at 0.1 µM (TK-10 [12]) was 93% and the growth at 100 µM (OVCAR-5) was -51%. The GI50 (A549; read-out: GI50) was 0.438 µM, the CC50 (A549; [22]) was 82.4 µM and the TGI (A549; read-out: TGI) was 14.9 µM. It also gave a GI50 (A549; read-out: pGI50 (converted)) of 0.437 µM, a CC50 (A549; [23]) of 83.2 µM and a TGI (A549; read-out: pTGI (converted)) of 14.8 µM. The growth at 100 µM (CAKI-1) was -9%, the growth at 100 µM (T47D) was -17% and the growth at 0.01 µM (OVCAR-3) was 104%. The growth at 0.01 µM (SK-MEL-2) was 97%, the growth at 1 µM (U-251 [13]) was 73% and the growth at 100 µM (MCF7 [14]) was -43%. It also gave a growth at 0.1 µM (OVCAR-8 [15]) of 101%, a growth at 1 µM (SNB-19 [16]) of 86% and a GI50 (SNB-19 [17]; read-out: GI50) of 4.93 µM. For the same compound, the CC50 (SNB-19 [17]; [22]) was 74.4 µM, the TGI (SNB-19 [17]; read-out: TGI) was 22.5 µM and the GI50 (SNB-19 [17]; read-out: pGI50 (converted)) was 4.9 µM. The CC50 (SNB-19 [17]; [23]) was 74.1 µM, the TGI (SNB-19 [17]; read-out: pTGI (converted)) was 22.4 µM and the GI50 (TK-10 [18]; read-out: GI50) was 10.7 µM. It also gave a CC50 (TK-10 [18]; [22]) of 71.6 µM, a TGI (TK-10 [18]; read-out: TGI) of 27.7 µM and a GI50 (TK-10 [18]; read-out: pGI50 (converted)) of 10.7 µM. For the same compound, the CC50 (TK-10 [18]; [23]) was 70.8 µM, the TGI (TK-10 [18]; read-out: pTGI (converted)) was 27.5 µM and the growth at 0.01 µM (SNB-75) was 85%. The growth at 0.1 µM (UACC-257) was 93%, the growth at 0.1 µM (786-0 [19]) was 96% and the growth at 0.01 µM (SK-OV-3) was 102%. The GI50 (MCF7 [20]; read-out: GI50) was 6.18 µM, the CC50 (MCF7 [20]; [22]) was over 100 µM and the TGI (MCF7 [20]; read-out: TGI) was 30.3 µM. The GI50 (MCF7 [20]; read-out: pGI50 (converted)) was 6.17 µM, the CC50 (MCF7 [20]; [23]) was over 100 µM and the TGI (MCF7 [20]; read-out: pTGI (converted)) was 30.2 µM. It also gave a growth at 1 µM (RXF 393) of 93%, a GI50 (SN12C; read-out: GI50) of 2.88 µM and a CC50 (SN12C; [22]) of 37 µM. It also gave a TGI (SN12C; read-out: TGI) of 10.9 µM, a GI50 (SN12C; read-out: pGI50 (converted)) of 2.88 µM and a CC50 (SN12C; [23]) of 37.2 µM. The TGI (SN12C; read-out: pTGI (converted)) was 11 µM, the growth at 100 µM (SF-268) was -51% and the growth at 1 µM (SR [21]) was 92%.
